Assay [1] relates to Candida albicans. Description: Challenge of propyl paraben, sodium benzoate, potassium sorbate singly and in combinations in Isosource HN, Example 4. The format is cell-based. Conditions: 0.13% propyl paraben, 0.1% sodium benzoate, 0.1% potassium sorbate in Isosource HN. The procedure:
(§1) The antimicrobials, propyl paraben, sodium benzoate, and potassium sorbate are challenged singly, and in combinations, against 5 organisms.
(§2) Isosource HN® is packaged and retorted with the allowable FDA limits. Three samples, A, B, or C are prepared, having, respectively, 0.13% propyl paraben (A), 0.1% sodium benzoate (B), and 0.1% potassium sorbate (C). Additional samples D, E, and F are mixtures of A & B, A & C, and A & B & C. Three control samples: G having 0.26% ethanol; H having no preservatives and 1, a blank control are also prepared. A 350-ml aliquot of each retorted product is transferred to a sterile flask and inoculated with one of the designated organisms. A like trial is initiated for each of five organisms, Aspergillus niger, Candida albicans, Enterobacter cloacae, Staphylococcus aureus, and Lactobacillus delbrueckii. These organisms are inoculated, respectively, at 44 organisms/ml product; 2 organisms/ml product; 2 organisms/ml product; 4.1 organisms/ml product, and 30 organisms/ml product. An ethanol control is included for all the tests because it is used as the solvent carrier for paraben. An inoculated control with no inhibitors is also used for comparison. The samples are incubated at the appropriate temperature for optimum growth, and aliquots are pulled for testing at the designated intervals. Results are read and recorded as the population per milliliter of sample tested.

Assay [2] concerns Enterobacter cloacae. The assay is described as above. The format is cell-based. Particulars: 0.13% propyl paraben, 0.1% sodium benzoate, 0.1% potassium sorbate in Isosource HN. As to the method:
as §1, §2

Assay [3] deals with 6 different organisms: A. niger, B. stearotherm, C. albicans, E. cloacae, L. Leichmanii, and S. aureus. The assay can be described thus: Challenge study using combinations, overall summary over all organisms, Example 2. The class given is cell-based. Conditions: for synergistic effect: in combination with one of the parabens. As to the method:
(§3) A challenge study is done on commercially sterile product containing combinations of 4 GRAS antimicrobial agents: methyl paraben, propyl paraben, diacetyl, and natamycin. Ten different matrices are tested against 6 different organisms: A. niger, B. stearotherm, C. albicans, E. cloacae, L. Leichmanii, and S. aureus.

For assay [4], the system named is Enterobacter cloacae. The assay can be described thus: Paraben challenge in commercially sterile product (Isosource), Example 1. Conditions: 0.1% in Isosource; for Inhibition of Enterobacter cloacae: 24 hours. The class given is cell-based. As to the method: (§4) Commercially sterile product (Isosource®) with 0.1% methyl or propyl paraben is prepared. Organisms were challenged in both variations at their optimum growth temperature and room temperature (RT). The populations are determined at different time intervals and compared to a spiked control without the parabens.

For assay [5], the system named is Aspergillus niger. Description: Challenge study using combinations of 4 GRAS antimicrobial agents, Example 2. The class given is cell-based. Conditions: for effectiveness against growth of Aspergillus niger: 0.2%. The procedure:
as §3

Assay [6] deals with Bacillus stearothermophilus. The description is as above. The format is cell-based. As to the method: as §3
Assay [7] concerns Candida albicans. Described as above. The format is cell-based. Conditions: 0.2%. As to the method: as §3
Assay [8] has as its system Enterobacter cloacae. The description is as above. The class given is cell-based. Particulars: 0.2%. As to the method:
as §3

In another assay the test system is Lactobacillus leichmanni. Described as above. The class given is cell-based. Conditions: 0.2%. The procedure:
as §3

Assay [9] relates to Candida albicans. Description: Paraben challenge in commercially sterile product (Isosource), Example 1. The class given is cell-based. Conditions: 0.1% in Isosource. The procedure: as §4
The test system of a further assay is Staphylococus aureus. The assay can be described thus: Challenge study using combinations of 4 GRAS antimicrobial agents, Example 2. The format is cell-based. As to the method: as §3
In assay [10] the test system is Candida albicans. Description: Feeding tube lifetime (clogging) test in vitro, Example 3. Conditions: 0.1% in formula, feeding tube inoculated with 100 CFU Candida albicans, approximately 30° C. The procedure:
Feeding solution is perfused through a feeding tube and maintained at approximately 30° C. during the test, which may last several days or weeks. At the time the test is begun the solution within the feeding tube is inoculated with 100 CFU of Candida albicans. After a few hours of incubation (no flow in the tube), perfusion is started and continued until the tube becomes clogged due to overgrowth of the microorganisms.

The test system of assay [11] is Aspergillus niger. Description: Challenge of propyl paraben, sodium benzoate, potassium sorbate singly and in combinations in Isosource HN, Example 4. The format is cell-based. As to the method:
as §1, §2

In a further assay the test system is 5 organisms. Description: Challenge of three antimicrobials, overall summary over 5 organisms, Example 4. The format is cell-based. Particulars: 0.13% propyl paraben, 0.1% sodium benzoate, 0.1% potassium sorbate in Isosource HN. As to the method:
as §1
as §2, with “The samples are incubated at the appropriate temperature for optimum growth, and aliquots are pulled for testing at the designated intervals.” left out

Each structure is given as a SMILES string.

For the molecule `C/C=C/C=C/C(=O)[O-].[K+]` [Potassium sorbate, potassium sorbate], the “inhibition of Candida albicans” value in the assay with Candida albicans [1] is listed as “not effective”. Further, the “Inhibition of Enterobacter cloacae” value in the assay with Enterobacter cloacae [2] is “most effective agent alone”.

With `CC(=O)C(C)=O` [diacetyl], in [3] (alone), the “effectiveness alone compared with the parabens” value was “not as effective alone as the parabens”. In addition, in assay [3], the synergistic effect result is “does not contribute any synergistic effect”.

Turning to `COC(=O)c1ccc(O)cc1` [methyl paraben], the “Inhibition of Enterobacter cloacae” value with Enterobacter cloacae [4] (35° C.) is recorded as “dramatic”; in the assay on Enterobacter cloacae [4] (room temperature), “slight inhibition”. Moreover, the “difference in population compared to the control” value with Enterobacter cloacae [4] (35° C., 48 hours) is listed as 0.5 logs. Moreover, the “growth lower than the propyl paraben sample” value with Enterobacter cloacae [4] (room temperature, 48 hours) is reported as 1.5 logs. The “effectiveness against growth of Aspergillus niger” value with Aspergillus niger [5] was “most effective”. For the same molecule, the “effectiveness alone against Aspergillus” value in the assay with Aspergillus niger [5] (alone, summary statement) is “very effective”. In assay [6], the “inhibition of Bacillus stearothermophilus growth” value is on record as “greatest amount of inhibition”. Besides, the “effectiveness alone against Bacillus” value in [6] (alone, summary statement) was “very effective”. The “inhibition of Candida albicans” value in the assay on Candida albicans [7] was “slight inhibitory effect”. The “effect on Enterobacter cloacae growth” value in the assay on Enterobacter cloacae [8] (first 24 hours) was “slows growth slightly”; in the assay with Enterobacter cloacae [8] (otherwise (other than first 24 hours)), “uninhibited”. The “effectiveness against Lactobacillus leichmanni” value with Lactobacillus leichmanni was “effective”. For the same molecule, the “inhibition of the other organisms” value in assay [3] (alone) is reported as “slightly inhibitory on three others”.

`C[C@@H]1C/C=C/C=C/C=C/C=C/[C@H](O[C@@H]2O[C@H](C)[C@@H](O)[C@H](N)[C@@H]2O)C[C@@H]2O[C@](O)(C[C@@H](O)C[C@H]3O[C@@H]3/C=C/C(=O)O1)C[C@H](O)[C@H]2C(=O)O` [natamycin]: the “effectiveness alone compared with the parabens” value in assay [3] (alone) was “not as effective alone as the parabens”. The synergistic effect result in assay [3] is “does not contribute any synergistic effect”.

As for `CCCOC(=O)c1ccc(O)cc1` [propyl paraben], the “lower CFU/ml of Candida albicans than the control” value in the assay with Candida albicans [9] (7 days) is given as 2-3 log cycle. Besides, the “difference in Candida albicans CFU/ml from the control” value with Candida albicans [9] (14 days) is less than 2 logs. For the same molecule, the “effectiveness against growth of Aspergillus niger” value in the assay with Aspergillus niger [5] is on record as “most effective”. Besides, the “inhibition of Candida albicans” value with Candida albicans [7] was “good inhibition”. Besides, the “effectiveness against Lactobacillus leichmanni” value with Lactobacillus leichmanni is recorded as “effective”. Also, in the assay on Staphylococus aureus (0.2% propyl paraben, summary statement), the “inhibition against S. aureus” value is recorded as “slight inhibition”. The “inhibitory effect on Staphylococus aureus” value in the assay with Staphylococus aureus (0.2%, first 24 hours) is listed as “slight inhibitory effect”. Further, in assay [3] (0.2%), the “organisms showing good inhibition” value is reported as “good inhibition of three out of the six organisms” and the “overall inhibitory effectiveness among agents” value was “most effective inhibitory agent overall”. In the assay on Candida albicans [10], the “extension of the time when clogging occurred beyond that attained with no paraben” value lay within 1 to 2 weeks. Besides, in the assay on Aspergillus niger [11] (0.13% propyl paraben in Isosource HN, compared with the other antimicrobials), the “Aspergillus niger growth inhibition” value is listed as “inhibited most”. Moreover, the “spore growth of Aspergillus niger” value with Aspergillus niger [11] (7 days) is recorded as “do not exhibit spore growth”. Further, in the assay with 5 organisms, the “overall effectiveness over the five challenge organisms” value was “more effective against 4 of the organisms than either of the other 2 antimicrobials alone”.

The values are drawn from patent publication US20020132030A1, “Composition and method for prolonging the useful life of enteral feeding tubes” (priority 1999, published 2002).
